Reference: patent US7109193B2, “Tricyclic diazepines tocolytic oxytocin receptor antagonists” (Wyeth, priority 2001, dated 2006)

Target: T1, human oxytocin receptor (Homo sapiens, UniProt P30559)
T1 construct: host or cells: CHO cells (pcDNA3.1 vector)
T1 sequence (P30559 1-389): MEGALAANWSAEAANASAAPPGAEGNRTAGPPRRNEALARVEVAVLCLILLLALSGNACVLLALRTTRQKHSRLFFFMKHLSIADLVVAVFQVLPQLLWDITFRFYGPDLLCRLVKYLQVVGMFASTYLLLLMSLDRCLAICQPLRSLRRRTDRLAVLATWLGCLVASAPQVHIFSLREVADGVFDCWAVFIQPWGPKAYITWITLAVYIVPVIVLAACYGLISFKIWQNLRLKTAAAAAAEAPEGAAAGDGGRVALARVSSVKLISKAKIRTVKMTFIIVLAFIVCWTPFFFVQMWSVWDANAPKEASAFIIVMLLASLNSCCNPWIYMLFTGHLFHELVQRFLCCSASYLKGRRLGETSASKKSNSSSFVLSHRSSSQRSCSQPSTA
Assay: Oxytocin binding in Chinese Hamster Ovary cell membranes expressing human oxytocin receptors
Conditions: 100 nM, CHO cell membranes, [3H]oxytocin, values without parentheses, read-out: OT % inhibition @ 100% nM

Row | inhibition at 0.1 µM [%] | Structure (SMILES)
1 | 99 | COc1cc(-c2ccccc2C)c(Cl)cc1C(=O)N1Cc2ccc(C(=O)N(C)C3CCN(C)C3)n2Cc2ccccc21 (stereo not shown) [Example 190, 10-[(6-Chloro-3-methoxy-2′-methyl[1,1′-biphenyl]-4-yl)carbonyl]-N-methyl-N-(1-methyl-3-pyrrolidinyl)-10,11-dihydro-5H-pyrrolo[2,1-c][1,4]benzodiazepine-3-carboxamide]
2 | 70 | COc1cc(C(=O)N2Cc3ccc(C(=O)N4CCN(CCN5CCOCC5)CC4)n3Cc3ccccc32)ccc1-c1cccc2ccccc12 [Example 213, {10-[3-Methoxy-4-(1-naphthyl)benzoyl]-10,11-dihydro-5H-pyrrolo[2,1-c][1,4]benzodiazepin-3-yl}{4-[2-(4-morpholinyl)ethyl]-1-piperazinyl}methanone]
3 | 82 | COc1ccccc1-c1ccc(C(=O)N2Cc3ccc(C(=O)N4CCN(C(C)C)CC4)n3Cc3ccccc32)cc1 [Example 234, (4-Isopropyl-1-piperazinyl){10-[(2′-methoxy[1,1′-biphenyl]-4-yl)carbonyl]-10,11-dihydro-5H-pyrrolo[2,1-c][1,4]benzodiazepin-3-yl}methanone]
4 | 61 | COc1cccc(-c2cc(OC)c(C(=O)N3Cc4ccc(C(=O)N5CCN(C(C)C)CC5)n4Cc4ccccc43)cc2Cl)c1 [Example 239, {10-[(6-Chloro-3,3′-dimethoxy[1,1′-biphenyl]-4-yl)carbonyl]-10,11-dihydro-5H-pyrrolo[2,1-c][1,4]benzodiazepin-3-yl}(4-isopropyl-1-piperazinyl)methanone]
5 | 21 | CN1CCCC1CCNC(=O)c1ccc2n1Cc1ccccc1N(C(=O)c1ccc(-c3cccc4ccccc34)cc1Cl)C2 (stereo not shown) [Example 173, 10-[2-Chloro-4-(1-naphthyl)benzoyl]-N-[2-(1-methyl-2-pyrrolidinyl)ethyl]-10,11-dihydro-5H-pyrrolo[2,1-c][1,4]benzodiazepine-3-carboxamide]
6 | 82 | Cc1ccccc1-c1ccc(C(=O)N2Cc3ccc(C(=O)NCCC4CCCN4C)n3Cc3ccccc32)cc1C (stereo not shown) [Example 163, 10-[(2,2′-Dimethyl[1,1′-biphenyl]-4-yl)carbonyl]-N-[2-(1-methyl-2-pyrrolidinyl)ethyl]-10,11-dihydro-5H-pyrrolo[2,1-c][1,4]benzodiazepine-3-carboxamide]
7 | 50 | COc1ccccc1-c1ccc(C(=O)N2Cc3ccc(C(=O)NCCN4CCCCC4)n3Cc3ccccc32)cc1OC [Example 158, 10-[(2,2′-Dimethoxy[1,1′-biphenyl]-4-yl)carbonyl]-N-[2-(1-piperidinyl)ethyl]-10,11-dihydro-5H-pyrrolo[2,1-c][1,4]benzodiazepine-3-carboxamide]
